Measured values from PMC11379888 (Nature Communications, 2024).
pKd: −log10 of the molar value. In brackets after ≈: the same amount, converted by molar mass. Like-named read-outs stand apart in the source and are kept apart here.

Experiments:
[1] = test system: Pdr5-deficient S. cerevisiae (empty vector); assay: microbe, parasite or virus in culture; type: cell-based; settings: Saccharomyces cerevisiae, 48 h, read-out: IC50 (fluconazole-sensitivity, OD600nm)
[2] = test system: C. albicans Cdr1 overexpressed in Pdr5-deficient S. cerevisiae; assay: organism not typed; type: cell-based; settings: 48 h, read-out: IC50 (fluconazole-sensitivity, OD600nm)
purified Cdr1 = purified Cdr1 (Candida albicans, UniProt Q5ANA3); assay: ATPase activity assay; type: biochemical, C. albicans; settings: drug ten times Cdr1 concentration (4 μM vs 0.4 μM), GDN, relative to DMSO
purified Cdr1, sequence (Q5ANA3 whole entry, the tested form may be a part): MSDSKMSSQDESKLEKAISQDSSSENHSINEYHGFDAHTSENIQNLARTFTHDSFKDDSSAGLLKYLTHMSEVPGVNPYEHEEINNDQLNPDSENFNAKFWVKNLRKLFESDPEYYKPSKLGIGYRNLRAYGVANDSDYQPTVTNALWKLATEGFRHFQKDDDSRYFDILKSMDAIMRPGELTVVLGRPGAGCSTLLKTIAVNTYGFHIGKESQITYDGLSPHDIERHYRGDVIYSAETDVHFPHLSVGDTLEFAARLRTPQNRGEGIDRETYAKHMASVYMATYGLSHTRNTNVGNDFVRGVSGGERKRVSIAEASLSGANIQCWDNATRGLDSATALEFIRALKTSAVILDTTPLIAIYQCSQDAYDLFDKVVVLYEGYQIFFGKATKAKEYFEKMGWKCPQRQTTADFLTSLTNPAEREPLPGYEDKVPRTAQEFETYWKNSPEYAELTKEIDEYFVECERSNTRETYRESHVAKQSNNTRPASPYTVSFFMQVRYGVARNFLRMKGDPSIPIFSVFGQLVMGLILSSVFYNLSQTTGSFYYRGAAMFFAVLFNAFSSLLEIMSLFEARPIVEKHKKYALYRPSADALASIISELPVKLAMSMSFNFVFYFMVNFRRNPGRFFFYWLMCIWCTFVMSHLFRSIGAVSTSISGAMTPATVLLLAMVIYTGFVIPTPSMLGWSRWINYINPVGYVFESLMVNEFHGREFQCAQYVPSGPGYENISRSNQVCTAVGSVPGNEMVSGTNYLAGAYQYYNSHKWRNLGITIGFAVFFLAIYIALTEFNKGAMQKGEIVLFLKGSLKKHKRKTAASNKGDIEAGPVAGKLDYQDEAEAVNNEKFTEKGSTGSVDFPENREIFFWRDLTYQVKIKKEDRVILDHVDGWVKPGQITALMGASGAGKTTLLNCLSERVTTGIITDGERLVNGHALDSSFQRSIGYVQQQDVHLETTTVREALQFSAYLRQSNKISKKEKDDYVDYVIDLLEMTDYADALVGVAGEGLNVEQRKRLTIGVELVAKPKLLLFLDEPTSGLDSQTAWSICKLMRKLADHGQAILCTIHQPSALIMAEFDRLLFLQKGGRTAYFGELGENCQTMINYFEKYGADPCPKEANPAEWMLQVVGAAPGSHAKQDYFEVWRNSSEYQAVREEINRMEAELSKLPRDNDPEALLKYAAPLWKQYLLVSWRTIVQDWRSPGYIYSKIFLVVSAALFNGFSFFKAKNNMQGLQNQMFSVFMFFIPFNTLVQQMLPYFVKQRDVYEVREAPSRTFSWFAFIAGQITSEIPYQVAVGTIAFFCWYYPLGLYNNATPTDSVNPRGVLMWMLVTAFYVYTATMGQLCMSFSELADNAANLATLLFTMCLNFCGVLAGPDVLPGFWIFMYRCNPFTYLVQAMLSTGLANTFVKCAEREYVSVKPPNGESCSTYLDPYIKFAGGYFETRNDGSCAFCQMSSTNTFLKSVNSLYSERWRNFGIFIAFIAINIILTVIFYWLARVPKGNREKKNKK

Cdr1 fused with EGFP = Cdr1 fused with EGFP (Candida albicans, UniProt Q5ANA3); assay: Microscale thermophoresis; type: binding, C. albicans
Cdr1 fused with EGFP, sequence (Q5ANA3 whole entry, the tested form may be a part): as above

[3] = test system: Cdr1 overexpressed in Pdr5-knocked-out S. cerevisiae; type: cell-based
[4] = test system: azole-resistant clinical C. albicans isolates; settings: cited from earlier work
C. albicans Cdr1 = settings: cited from earlier work
C. albicans Cdr2 = settings: cited from earlier work

| Molecule | IC50 [1] | IC50 [2] | ATP hydrolysis (relative ATPase activity, mean) (purified Cdr1) | pKd (Cdr1 fused with EGFP) | selectivity of inhibition Cdr1 vs Pdr5 ([3]; […], 1 μg/mL fluconazole, 0.1 μg/mL milbemycin oxime) | IC50 (milbemycin oxime-sensitivity, OD600nM) ([3]; with 1 µg/mL fluconazole) | IC50 (milbemycin oxime-sensitivity, OD600nM) ([3]; with 10 µg/mL fluconazole) | pKd (Cdr1 fused with EGFP; read-out: dissociation constant (Kd), 100 nM Cdr1, PBS 0.02% DDM, 25 °C) | synergy with fluconazole [4] | inhibition of Cdr1 (C. albicans Cdr1) | inhibition of Cdr2 (C. albicans Cdr2) |
| --- | --- | --- | --- | --- | --- | --- | --- | --- | --- | --- | --- |
| OC(Cn1cncn1)(Cn1cncn1)c1ccc(F)cc1F [fluconazole] | 0.31 µg/mL (≈ 1.01 µM) | 56.6 µg/mL (≈ 185 µM) | decreases slightly | 4.21 | – | – | – | – | – | – | – |
| milbemycin oxime | – | – | 25.7% | – | selectively inhibits Cdr1 rather than Pdr5 | 0.034 µg/mL | 0.009 µg/mL | 6.83 | strong synergistic effects with fluconazole | – | – |
| milbemycin α25 | – | – | – | – | – | – | – | – | – | potent inhibition | potent inhibition |
